The source of these data is patent US12049483B2, “Selective and noncovalent inhibitors of oncogenic RAS mutants” (New York University, priority 2020, dated 2024).

The subject of assay [1] is RAS-mediated signaling (pERK). The assay is described as follows: ERK activation in HEK293T cells co-expressing monobody and RAS mutants. The format is cell-based. The following applies: expressed intracellularly as a genetically encoded reagent. On the procedure:
Transient expression of KRAS and monobody for confocal imaging and signaling experiments. HEK293T cells were cultured in glass-bottom 8-well chambers (ibidi GmbH) for colocalization assays or in a 12-well plate for signaling assays for one day prior to transfection. On the day of transfection at 70-90% confluency, media were replaced with antibiotics-free complete media (DMEM supplemented with 10% FBS). Transfection of pEGFP vectors encoding the appropriate mCherry fused monobodies and EGFP fused KRAS4B constructs was performed with lipofectamine 3000 (Thermo Fisher Scientific) and according to the manufacturer's recommended protocol. […]
Cell signaling assay and quantification of immunoblots. […] The supernatant was collected and measured for total protein amount using BCA assay (Thermo Scientific; 23227). […] The proteins were then transferred from the gel to a low fluorescence background PVDF membrane (Millipore; IPFL00010) or regular PVDF membrane (Millipore; ISEQ00010) depending on whether fluorescence or chemiluminescence detection was performed. Phospho-ERK was detected using a rabbit anti-pERK antibody (Cell Signaling; 9101S) and total ERK was detected using a rabbit anti-ERK antibody (Cell Signaling; 9102S). Monobody expression was detected using mouse anti-Flag antibody (Sigma; F3165) or anti-HA tag antibody (BioLegend; 901516). […]

The target in a further assay is KRAS(G12C) (Homo sapiens, UniProt P01116, G12C). In words: BLI binding to KRAS(G12C). The following applies: nucleotide state GTPγS. Further details: KRAS4B residues 1-174 containing G12C, G12V, G12D, G13D, Q61L, WT; His6 (N, cleaved yes); Avi-tag (N, cleaved yes); made in house; host or cells: E. coli BL21(DE3). An excerpt: Protein expression and purification. All proteins used for monobody development and binding assays, including RAS constructs (KRAS4B residues 1-174 containing G12C, G12V, G12D, G13D, Q61L, WT, NRAS(WT), and HRAS(WT)), Monobodies, and RAF-1 RBD (residues 51-131) were produced with an N-terminal tag containing His6, Avi-tag for biotinylation and a TEV protease recognition site using the pHBT vector. The proteins were produced in E. coli BL21(DE3). To produce biotinylated proteins, E. coli BL21(DE3) with the pBirA plasmid was used as the host and grown in the presence of 50 μM of biotin. Expressed proteins were purified using Ni-Sepharose columns (GE Healthcare) via gravitational flow, followed by dialysis in Tris buffered saline (TBS, 50 mM Tris-Cl pH7.5 containing 150 mM NaCl) for non-RAS proteins. TBS containing 20 mM MgCl2 and 0.5 mM DTT was used for RAS proteins. Samples were further purified using a Superdex 75 size exclusion column on AKTA Pure systems (GE Healthcare). HRAS(WT) and HRAS(G12C) (residues 1-166) used for crystallization was produced as a fusion protein with His6 and yeast SUMO at the N terminus using an in-house vector described previously. […]
Biolayer interferometry (BLI) analysis. […] BLI signals were analyzed using Octet Data Analysis software (Molecular Devices).
On the technique in general: BLI is a label-free optical method that tracks binding on a fibre tip over time.

For the sequence “VSSVPTKLEVVAATPTSLLISWDAPAVTVFFYVITYGETGHGVGAFQAFKVPGSKSTATISGLKPGVDYTITVYARGYSKQGPYKPSPISINYRT [12VC1]”, the RAS-mediated signaling entry in assay [1] is “potently inhibited”. This sequence came in with an off-rate constant (koff) on KRAS(G12C) of 0.0027 s⁻¹.

What is called koff is a measure of how fast the partners let go of each other. Read a low koff as slow dissociation.
